# Data taken from PubChem BioAssay (NCI).
# Several values for one entry are separate records, joined by “and”; a condition that tells them apart may be missing. Equal values may be shown once.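 All cell lines were grown in 96-well plates and treated with compound for 48 hours. Abbreviation: GI50, concentration required for 50% inhibition of growth. Definition used: TGI = concentration required for complete inhibition of growth.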
# Tests used:
# Assay in all cases: NCI-60 cell line screen, 48 h
# UACC-257 melanoma = test system: UACC-257 melanoma
# KM12 colon = test system: KM12 colon
# BT-549 breast = test system: BT-549 breast
# CAKI-1 renal = test system: CAKI-1 renal
# SF-268 CNS = test system: SF-268 CNS
# RPMI-8226 leukemia = test system: RPMI-8226 leukemia
# SF-295 CNS = test system: SF-295 CNS
# HL-60(TB) leukemia = test system: HL-60(TB) leukemia
# OVCAR-3 ovarian = test system: OVCAR-3 ovarian
# A549 NSCLC = test system: A549 NSCLC
# NCI-H460 lung = test system: NCI-H460 lung
# U251 CNS = test system: U251 CNS
# MALME-3M melanoma = test system: MALME-3M melanoma
# HOP-62 NSCLC = test system: HOP-62 NSCLC
# SK-MEL-5 melanoma = test system: SK-MEL-5 melanoma
# DU-145 prostate = test system: DU-145 prostate
# HCT-116 colon = test system: HCT-116 colon
# HS 578T breast = test system: HS 578T breast
# T-47D breast = test system: T-47D breast
# OVCAR-4 ovarian = test system: OVCAR-4 ovarian
# SN12C renal = test system: SN12C renal
# UO-31 renal = test system: UO-31 renal
# HCC-2998 colon = test system: HCC-2998 colon
# OVCAR-8 ovarian = test system: OVCAR-8 ovarian
# UACC-62 melanoma = test system: UACC-62 melanoma
# ACHN renal = test system: ACHN renal
# SNB-19 CNS = test system: SNB-19 CNS
# SW-620 colon = test system: SW-620 colon
# A498 renal = test system: A498 renal
# SK-MEL-28 melanoma = test system: SK-MEL-28 melanoma
# 786-0 renal = test system: 786-0 renal
# EKVX NSCLC = test system: EKVX NSCLC
# COLO 205 colon = test system: COLO 205 colon
# NCI-H522 lung = test system: NCI-H522 lung
# OVCAR-5 ovarian = test system: OVCAR-5 ovarian
# SK-MEL-2 melanoma = test system: SK-MEL-2 melanoma
# HOP-92 NSCLC = test system: HOP-92 NSCLC
# HCT-15 colon = test system: HCT-15 colon
# SK-OV-3 ovarian = test system: SK-OV-3 ovarian
# SF-539 CNS = test system: SF-539 CNS
# M14 melanoma = test system: M14 melanoma
# NCI-H23 lung = test system: NCI-H23 lung
# K-562 leukemia = test system: K-562 leukemia
# SR leukemia = test system: SR leukemia
# SNB-75 CNS = test system: SNB-75 CNS
# MCF7 breast = test system: MCF7 breast
# TK-10 renal = test system: TK-10 renal
# NCI-H226 lung = test system: NCI-H226 lung
# CCRF-CEM leukemia = test system: CCRF-CEM leukemia
# PC-3 prostate = test system: PC-3 prostate
# MDA-MB-231 breast = test system: MDA-MB-231 breast
# MOLT-4 leukemia = test system: MOLT-4 leukemia
# LOX IMVI melanoma = test system: LOX IMVI melanoma
# HT29 colon = test system: HT29 colon
# RXF 393 renal = test system: RXF 393 renal
# NCI/ADR-RES ovarian = test system: NCI/ADR-RES ovarian
# MDA-MB-435 = test system: MDA-MB-435
# IGROV1 ovarian = test system: IGROV1 ovarian
compound,measurement,setting,value
O=C(NNc1nc2cc(F)c(F)cc2n2cccc12)c1cccnn1,GI50,UACC-257 melanoma,802 nM and 364 nM
same,TGI,UACC-257 melanoma,2890 nM and 11000 nM
same,GI50,KM12 colon,378 nM and 336 nM
same,TGI,KM12 colon,30000 nM and 33300 nM
same,GI50,BT-549 breast,1400 nM and 271 nM
same,TGI,BT-549 breast,30000 nM and 24800 nM
same,GI50,CAKI-1 renal,261 nM and 251 nM
same,TGI,CAKI-1 renal,30000 nM and 11200 nM
same,GI50,SF-268 CNS,364 nM and 274 nM
same,TGI,SF-268 CNS,30000 nM and > 100000 nM
same,GI50,RPMI-8226 leukemia,305 nM and 338 nM
same,TGI,RPMI-8226 leukemia,1150 nM and 7720 nM
same,GI50,SF-295 CNS,202 nM and 97.5 nM
same,TGI,SF-295 CNS,5230 nM and 6170 nM
same,GI50,HL-60(TB) leukemia,570 nM and 231 nM
same,GI50,OVCAR-3 ovarian,227 nM and 243 nM
same,TGI,OVCAR-3 ovarian,3710 nM and 13200 nM
same,GI50,A549 NSCLC,316 nM and 249 nM
same,TGI,A549 NSCLC,30000 nM and 15000 nM
same,GI50,NCI-H460 lung,134 nM and 81 nM
same,TGI,NCI-H460 lung,3650 nM and 1960 nM
same,GI50,U251 CNS,229 nM and 172 nM
same,TGI,U251 CNS,30000 nM and 36100 nM
same,GI50,MALME-3M melanoma,771 nM and 811 nM
same,TGI,MALME-3M melanoma,28700 nM
same,GI50,HOP-62 NSCLC,275 nM and 99.4 nM
same,TGI,HOP-62 NSCLC,9220 nM and 11300 nM
same,GI50,SK-MEL-5 melanoma,491 nM and 271 nM
same,TGI,SK-MEL-5 melanoma,3350 nM and 2000 nM
same,GI50,DU-145 prostate,346 nM and 579 nM
same,TGI,DU-145 prostate,30000 nM and 16100 nM
same,GI50,HCT-116 colon,207 nM and 173 nM
same,TGI,HCT-116 colon,30000 nM and 11900 nM
same,GI50,HS 578T breast,1400 nM and 1040 nM
same,TGI,HS 578T breast,30000 nM and 79000 nM
same,GI50,T-47D breast,838 nM and 293 nM
same,TGI,T-47D breast,24500 nM and 9750 nM
same,GI50,OVCAR-4 ovarian,209 nM and 201 nM
same,TGI,OVCAR-4 ovarian,30000 nM and > 100000 nM
same,GI50,SN12C renal,468 nM and 646 nM
same,TGI,SN12C renal,30000 nM and 31400 nM
same,GI50,UO-31 renal,105 nM and 41.4 nM
same,TGI,UO-31 renal,3970 nM and 2340 nM
same,GI50,HCC-2998 colon,589 nM and 474 nM
same,TGI,HCC-2998 colon,30000 nM and 19500 nM
same,GI50,OVCAR-8 ovarian,322 nM and 269 nM
same,TGI,OVCAR-8 ovarian,30000 nM and > 100000 nM
same,GI50,UACC-62 melanoma,331 nM and 388 nM
same,TGI,UACC-62 melanoma,2290 nM and 8830 nM
same,GI50,ACHN renal,158 nM and 134 nM
same,TGI,ACHN renal,8320 nM and 6530 nM
same,GI50,SNB-19 CNS,394 nM and 434 nM
same,TGI,SNB-19 CNS,30000 nM and > 100000 nM
same,GI50,SW-620 colon,231 nM and 354 nM
same,TGI,SW-620 colon,30000 nM and 60300 nM
same,GI50,A498 renal,614 nM and 382 nM
same,TGI,A498 renal,3260 nM and 2450 nM
same,GI50,SK-MEL-28 melanoma,504 nM and 515 nM
same,TGI,SK-MEL-28 melanoma,30000 nM and 22400 nM
same,GI50,786-0 renal,669 nM and 296 nM
same,TGI,786-0 renal,30000 nM and 12900 nM
same,GI50,EKVX NSCLC,255 nM and 190 nM
same,TGI,EKVX NSCLC,30000 nM and 16100 nM
same,GI50,COLO 205 colon,384 nM and 321 nM
same,TGI,COLO 205 colon,30000 nM and 19100 nM
same,GI50,NCI-H522 lung,747 nM and 262 nM
same,GI50,OVCAR-5 ovarian,693 nM and 2310 nM
same,TGI,OVCAR-5 ovarian,30000 nM and 32300 nM
same,GI50,SK-MEL-2 melanoma,963 nM and 1490 nM
same,TGI,SK-MEL-2 melanoma,30000 nM and 15500 nM
same,GI50,HOP-92 NSCLC,398 nM
same,TGI,HOP-92 NSCLC,8820 nM
same,GI50,HCT-15 colon,123 nM and 46.8 nM
same,TGI,HCT-15 colon,30000 nM and 38300 nM
same,GI50,SK-OV-3 ovarian,300 nM and 326 nM
same,TGI,SK-OV-3 ovarian,11400 nM and 17900 nM
same,GI50,SF-539 CNS,349 nM and 339 nM
same,TGI,SF-539 CNS,9180 nM and 8100 nM
same,GI50,M14 melanoma,309 nM and 197 nM
same,TGI,M14 melanoma,30000 nM and 11500 nM
same,GI50,NCI-H23 lung,654 nM
same,TGI,NCI-H23 lung,50800 nM
same,GI50,K-562 leukemia,374 nM and 323 nM
same,TGI,K-562 leukemia,30000 nM and 3780 nM
same,GI50,SR leukemia,175 nM and 48.6 nM
same,GI50,SNB-75 CNS,267 nM and 1910 nM
same,TGI,SNB-75 CNS,22000 nM and 25400 nM
same,GI50,MCF7 breast,408 nM and 304 nM
same,TGI,MCF7 breast,4310 nM and 2830 nM
same,GI50,TK-10 renal,263 nM and 294 nM
same,TGI,TK-10 renal,30000 nM and 29000 nM
same,GI50,NCI-H226 lung,387 nM and 643 nM
same,TGI,NCI-H226 lung,14700 nM and 12100 nM
same,GI50,CCRF-CEM leukemia,76.5 nM
same,TGI,CCRF-CEM leukemia,1010 nM
same,GI50,PC-3 prostate,201 nM and 419 nM
same,GI50,MDA-MB-231 breast,559 nM and 750 nM
same,TGI,MDA-MB-231 breast,30000 nM and 54700 nM
same,GI50,MOLT-4 leukemia,178 nM and 136 nM
same,GI50,LOX IMVI melanoma,247 nM and 156 nM
same,TGI,LOX IMVI melanoma,1090 nM and 5270 nM
same,GI50,HT29 colon,644 nM and 542 nM
same,TGI,HT29 colon,30000 nM and 29200 nM
same,GI50,RXF 393 renal,700 nM and 245 nM
same,TGI,RXF 393 renal,4130 nM and 13200 nM
same,GI50,NCI/ADR-RES ovarian,205 nM and 207 nM
same,TGI,NCI/ADR-RES ovarian,2880 nM and 3560 nM
same,GI50,MDA-MB-435,1160 nM and 811 nM
same,TGI,MDA-MB-435,30000 nM and 19900 nM
same,GI50,IGROV1 ovarian,227 nM and 273 nM
same,TGI,IGROV1 ovarian,5020 nM and 4690 nM
